Target: T1, glucagon receptor (Homo sapiens, UniProt P47871)
T1 construct: expressed in transfected cells; host or cells: Chinese Hamster Ovary cells (CHO-HGR), membranes
Assay: glucagon receptor binding assay (125I-glucagon, CHO-HGR membranes)
Settings: 20 μM; reported where 20 μM did not reduce glucagon binding by 50%
Summary of the method: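 Membranes from CHO cells expressing glucagon receptor (10 ug protein) in Tris pH 7.4 buffer with EDTA, BSA and bacitracin, incubated with test compound and 125I-glucagon (9 fmol) 60 min at room temperature. Bound radioactivity counted after filtration; nonspecific binding defined with 1 μM native glucagon; 0.5% DMSO.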

T1 sequence (P47871 26-477): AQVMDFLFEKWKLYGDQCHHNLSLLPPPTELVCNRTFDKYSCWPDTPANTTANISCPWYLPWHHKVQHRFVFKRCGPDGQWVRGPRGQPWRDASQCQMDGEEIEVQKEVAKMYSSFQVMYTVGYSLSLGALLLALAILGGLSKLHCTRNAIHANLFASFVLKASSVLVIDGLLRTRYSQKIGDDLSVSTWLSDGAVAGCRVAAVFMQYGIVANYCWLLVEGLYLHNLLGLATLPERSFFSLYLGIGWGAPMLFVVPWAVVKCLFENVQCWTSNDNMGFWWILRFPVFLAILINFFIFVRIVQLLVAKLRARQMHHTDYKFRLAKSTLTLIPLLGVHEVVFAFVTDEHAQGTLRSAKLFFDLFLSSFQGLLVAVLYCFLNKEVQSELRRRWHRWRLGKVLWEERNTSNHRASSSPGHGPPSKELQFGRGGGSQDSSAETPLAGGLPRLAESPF

inhibition at 20 µM	% Inhibition (20 μM)	Compound
35.5%		CCCC=Cc1c(C(C)C)nc(C(C)C)c(CO)c1-c1ccc(C(C)C)cc1 [Example 133, 2,6-Diisopropyl-3-hydroxymethyl-4-(4-isopropylphenyl)-5-(pent-1-enyl)pyridine]
37.1%		CCCCCc1c(C(C)C)nc(C(C)C)c(CO)c1-c1ccc(OC)cc1 [Example 169, 2,6-Diisopropyl-3-hydroxymethyl-4-(4-methoxyphenyl)-5-pentyl-pyridine]
27.1%		CC(C)c1nc(C(C)C)c(CN2CCC(N3CCCCC3)CC2)c(-c2ccc(F)cc2)c1CO [Example 74, 2,6-Diisopropyl-3-hydroxymethyl-4-(4-fluorophenyl)-5-[(4-piperidinopiperidin-1-yl)methyl]pyridine]
	48.37%	CCCCCc1c(C(C)C)nc(C(C)C)c(CO)c1-c1cccc(OC)c1 [Example 171, 2,6-Diisopropyl-3-hydroxymethyl-4-(3-methoxyphenyl)-5-pentylpyridine]
4.17%		CCCCCc1c(C(C)C)nc(C(C)C)c(C(O)C[S@+]([O-])c2ccc(C)cc2)c1-c1ccc(F)cc1 (single isomer, unassigned) [Example 112]
27.8%		CC(C)c1nc(C(C)C)c(C(O)c2ccccc2)c(-c2ccc(F)cc2)c1CO (racemic) [Example 96, (±)-2,6-Diisopropyl-3-hydroxymethyl-4-(4-fluorophenyl)-5-(hydroxy-phenylmethyl)pyridine]
40.3%		C=CCc1c(C)cc(C)c(C(C)O)c1-c1ccc(F)cc1 (centres unmarked) [Example 196, 3,5-Dimethyl-2-(1-hydroxyethyl)-6-(prop-2-enyl)-4'-fluoro-1,1'-biphenyl]
39%		CCCC=Cc1c(C(C)C)nc(C(C)C)c(CO)c1-c1ccc(Cl)c(Cl)c1 [Example 149, 2,6-Diisopropyl3-hydroxymethyl-4-(3,4-dichlorophenyl)-5-(pent-1-enyl)pyridine]

Same assay, conditions: 125I-glucagon; 60 min at room temperature; read-out: IC50

IC50	Compound
5000 nM	C=Cc1nc(C(C)C)c(CO)c(-c2ccc(F)cc2)c1CCCCC [Example 214, 2-Ethenyl-3-pentyl-4-(4-fluorophenyl)-5-hydroxymethyl-6-isopropylpyridine]
180 nM	CCc1c(C(C)C)cc(C(C)C)c(C(C)O)c1-c1ccc(F)cc1 (single isomer, unassigned; (+)) [Example 244, (+)-3,5-Diisopropyl-2-(1-hydroxyethyl)-6-ethyl-4'-fluoro-1,1'-biphenyl]
12000 nM	CCCC=Cc1c(C(C)C)nc(C(C)C)c(CO)c1-c1ccoc1 [Example 187, 2,6-Diisopropyl-3-hydroxymethyl-4-(3-furyl)-5-(pent-1-enyl)pyridine]
800 nM	CC=Cc1c(C(C)C)nc(C(C)C)c(CO)c1-c1ccc(F)cc1 [Example 21, 2,6-Diisopropyl-3-hydroxymethyl-4-(4-fluorophenyl)-5-(1-propenyl)-pyridine]
50 nM	CCCc1c(C(C)C)nc(C(C)C)c(CO)c1-c1ccc(F)cc1O (single isomer, unassigned) [Example 239-E2, 2,6-Diisopropyl-3-(1-hydroxymethyl)-4-(4-fluoro-2-hydroxyphenyl)-5-propylpyridine]
400 nM	CCCc1c(C(C)C)nc(C(C)C)c(CO)c1-c1ccc(F)cc1 [Example 25, 2,6-Diisopropyl-3-hydroxymethyl-4-(4-fluorophenyl)-5-propylpyridine]
1800 nM	COc1cccc(SCc2c(C(C)C)nc(C(C)C)c(CO)c2-c2ccc(F)cc2)c1 [Example 54, 2,6-Diisopropyl-3-hydroxymethyl-4-(4-fluorophenyl)-5-[(3-methyoxy-phenyl)thio]methylpyridine]
900 nM	CC(C)c1nc2c(c(-c3ccc(F)cc3)c1CO)CCCC2(C)C [Example 230, 2-Isopropyl-3-hydroxymethyl-4-(4-fluorophenyl)-5,6,7,8-tetrahydro-8,8-dimethylquinoline]
10000 nM	CC(C)c1nc(C(C)C)c(CN(C)C)c(-c2ccc(F)cc2)c1CO [Example 79, 2,6-Diisopropyl-3-hydroxymethyl-4-(4-fluorophenyl)-5-(dimethylamino)-methylpyridine]
1200 nM	CC1=CC(C)(C)Cc2c1nc(C(C)C)c(C(C)O)c2-c1ccc(F)cc1 (centres unmarked) [Example 237, 2-Isopropyl-3-(1-hydroxyethyl)-4-(4-fluorophenyl)-5,6-dihydro-6,6,8-trimethylquinoline]
1100 nM	Cc1ccc(CCCc2c(C(C)C)nc(C(C)C)c(CO)c2-c2ccc(F)cc2)cc1 [Example 86, 2,6-Diisopropyl-3-hydroxymethyl-4-(4-fluorophenyl)-5-[3-(4methyl-phenyl)propyl]pyridine]
1000 nM	CCCC=Cc1c(C(C)C)cc(C(C)C)c(CO)c1-c1ccc(F)cc1 [Example 194, 3,5-Diisopropyl-2-hydroxymethyl-6-(pent-1-enyl)-4'-fluoro-1,1'-biphenyl]
45 nM	CCCCCc1c(C(C)C)nc(C(C)C)c(C(C)O)c1-c1ccccc1O (single isomer, unassigned) [Example 164-D1, 2,6-Diisopropyl-3-(1-hydroxyethyl)-4-(2-hydroxyphenyl)-5-pentylpyridine]
86 nM	CCCCCc1c(C(C)C)cc(C(C)C)c(C(C)O)c1-c1ccc(F)cc1 (single isomer, unassigned; (+)) [Example 193, (+)-3,5-Diisopropyl-2-(1-hydroxyethyl)-6-pentyl-4'-fluoro-1,1-biphenyl]
17000 nM	CCCCCc1c(C(C)C)nc(C)c(CO)c1-c1ccc(F)cc1 [Example 198, 2-Isopropyl-3-pentyl-4-(4-fluorophenyl)-5-hydroxymethyl-6-methylpyridine]
1100 nM	CC(C)c1nc(C(C)C)c(CSc2ccc(F)cc2)c(-c2ccc(F)cc2)c1CO [Example 49, 2,6-Diisopropyl-3-hydroxymethyl-4-(4-fluorophenyl)-5-[(4-fluoro-phenyl)thio]methylpyridine]

System: rat liver membrane
Assay: not given
Settings: Collins et al. 1992; cited from earlier work

Compound	inhibit glucagon binding
CN(C)CCCN(C)c1nc2cc(Cl)c(Cl)cc2nc1/C=C/c1ccccc1 [CP-99,711]	micromolar concentrations

System: rat liver membrane
Assay: not given
Settings: Collins et al. 1992; cited from earlier work
Remark: another data set of the same source

Compound	inhibit glucagon action
CN(C)CCCN(C)c1nc2cc(Cl)c(Cl)cc2nc1/C=C/c1ccccc1 [CP-99,711]	micromolar concentrations

Reference: patent US6218431A, “Substituted biphenyls” (Bayer Corporation, priority 1997, dated 2001)
